Entries after “also recorded” stand apart in the source; their conditions may differ.
Tests used:
[1] = test system: SAPAP3-deficient mice; assay: Spray-induced grooming assay (baseline and spray-induced grooming) in SAPAP3-deficient mice; type: in vivo; conditions: compared with wild type
[2] = test system: SAPAP3-deficient mice; conditions: reference 4; cited from earlier work
[3] = intracerebroventricular infusion into left lateral ventricle for 7 days by osmotic minipump
[4] = intraperitoneal, 10 mg/kg/d, 10 mg/kg/day

| SMILES | basal (baseline) grooming [1, 3] | spray-induced grooming [1, 3] | basal (baseline) grooming [1, 4] | spray-induced grooming [1, 4] | compulsive grooming leading to acquisition of facial lesions [2] |
| --- | --- | --- | --- | --- | --- |
| CCOc1ccc2nc(N/C(=N/C(=O)CC)NC(=O)CC)nc(C)c2c1 [P5C6] | normalized | normalized |  |  |  |
| CNCCC(Oc1ccc(C(F)(F)F)cc1)c1ccccc1 (centres unmarked) [fluoxetine] |  |  | restored to wild type levels; also recorded: normalized | restored to wild type levels; also recorded: normalized | ameliorated |
